Test results published in PMC7918733, “Biological Profiling of Semisynthetic C19-Functionalized Ferruginol and Sugiol Analogues” (Antibiotics, 2021).
Read-outs that look alike come from different tables or passages of the source.

How the values were obtained:
Macrophages J774 = settings: cited from earlier work
[1] = system: L. guyanensis promastigotes; design: method as in PMID 30840453; settings: C18-congeners, cited from earlier work; for IC50: read-out: L. guyanensis IC50 ± SD
HBL-100 (Breast) [2] = settings: cited from earlier work
T-47D (Breast) [3] = settings: cited from earlier work
HeLa (Cervix) [4] = settings: cited from earlier work
SW1573 (Lung) [5] = settings: cited from earlier work
A549 (Lung) [6] = settings: cited from earlier work
[7] = target: T1, GABAA receptor subtype (α1β2γ2S) (Homo sapiens, UniProt P14867+P18507+P47870); design: expressed in transfected cells; host or cells: Xenopus laevis oocytes; settings: cited from earlier work
T1 sequence (P14867 28-456): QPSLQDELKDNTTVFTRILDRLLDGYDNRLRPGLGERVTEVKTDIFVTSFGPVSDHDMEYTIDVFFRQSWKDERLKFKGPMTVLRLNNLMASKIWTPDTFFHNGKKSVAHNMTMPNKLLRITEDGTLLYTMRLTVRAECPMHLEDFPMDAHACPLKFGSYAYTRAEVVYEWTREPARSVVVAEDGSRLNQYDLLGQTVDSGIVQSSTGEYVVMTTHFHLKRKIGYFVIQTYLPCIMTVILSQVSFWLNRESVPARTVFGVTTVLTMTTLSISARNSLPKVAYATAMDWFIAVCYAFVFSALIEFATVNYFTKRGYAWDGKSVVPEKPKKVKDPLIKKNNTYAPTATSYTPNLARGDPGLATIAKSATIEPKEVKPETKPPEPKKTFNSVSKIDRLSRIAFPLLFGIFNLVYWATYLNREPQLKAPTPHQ
T1 sequence (P47870 26-512): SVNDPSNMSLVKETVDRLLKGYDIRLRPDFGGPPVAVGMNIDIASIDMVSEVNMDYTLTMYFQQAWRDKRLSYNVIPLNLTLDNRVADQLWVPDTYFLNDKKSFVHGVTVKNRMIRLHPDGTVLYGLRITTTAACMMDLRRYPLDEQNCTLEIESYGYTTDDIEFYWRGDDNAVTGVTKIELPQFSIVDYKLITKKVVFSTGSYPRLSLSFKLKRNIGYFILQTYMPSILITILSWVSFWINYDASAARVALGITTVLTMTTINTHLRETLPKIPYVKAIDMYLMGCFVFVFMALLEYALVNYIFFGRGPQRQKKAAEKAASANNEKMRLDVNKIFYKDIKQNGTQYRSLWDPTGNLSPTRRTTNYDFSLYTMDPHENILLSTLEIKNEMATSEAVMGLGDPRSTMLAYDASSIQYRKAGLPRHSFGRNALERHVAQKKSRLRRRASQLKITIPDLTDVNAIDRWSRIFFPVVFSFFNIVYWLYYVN
T1 sequence (P18507 40-467 isoform P18507-1 limits assumed): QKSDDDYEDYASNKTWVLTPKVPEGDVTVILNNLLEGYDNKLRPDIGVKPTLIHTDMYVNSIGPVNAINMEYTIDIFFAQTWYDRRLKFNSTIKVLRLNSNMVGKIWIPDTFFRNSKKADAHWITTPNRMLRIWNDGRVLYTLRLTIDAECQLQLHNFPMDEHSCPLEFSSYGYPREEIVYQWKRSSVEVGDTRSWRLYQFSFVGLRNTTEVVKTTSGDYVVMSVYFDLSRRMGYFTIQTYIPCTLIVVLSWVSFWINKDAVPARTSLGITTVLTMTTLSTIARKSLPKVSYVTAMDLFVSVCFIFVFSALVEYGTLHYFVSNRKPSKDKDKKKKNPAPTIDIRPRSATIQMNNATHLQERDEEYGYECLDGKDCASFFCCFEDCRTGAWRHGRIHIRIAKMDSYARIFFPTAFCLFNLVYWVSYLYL

WiDr (Colon) [8] = settings: cited from earlier work
P. falciparum K1 strain = assay: Antiplasmodial DNA stain-based growth assay; format: cell-based; settings: Plasmodium falciparum, K1, 72 h, read-out: P. falciparum K1 EC50
Procedure: (§1) Assays were performed by using previously described DNA stain-based assay and methods, including cytotoxicity assays.

P. falciparum 3D7 strain = assay: Antiplasmodial DNA stain-based growth assay; format: cell-based; settings: Plasmodium falciparum, 3D7, 72 h, read-out: P. falciparum 3D7 EC50
Procedure: as §1

HEK293 = assay: Cytotoxicity on mammalian cell lines; format: cell-based
Procedure: as §1

HepG2 = assay: Cytotoxicity on mammalian cell lines; format: cell-based
Procedure: as §1

RAJI = assay: Cytotoxicity on mammalian cell lines; format: cell-based; settings: Homo sapiens, read-out: RAJI EC50
Procedure: as §1

BJ = assay: Cytotoxicity on mammalian cell lines; format: cell-based; settings: Homo sapiens, read-out: BJ EC50
Procedure: as §1

[9] = target: T1, GABAA receptor subtype (α1β2γ2S); assay: Two-microelectrode voltage-clamp in Xenopus laevis oocytes
Procedure: All molecules were tested at concentrations of 10, 100 μM and compared with dehydroabietic acid (DHA) (3) as a reference [16].

[10] = system: L. amazonensis promastigotes; design: method as in PMID 30840453; settings: C18-congeners, read-out: L. amazonensis IC50 ± SD; cited from earlier work
[11] = system: L. donovani promastigotes; settings: C18-congeners, read-out: L. donovani IC50 ± SD; cited from earlier work
[12] = system: L. infantum promastigotes; design: method as in PMID 30840453; settings: C18-congeners, read-out: L. infantum IC50 ± SD; cited from earlier work
WiDr (Colon) [13] = assay: Antiproliferative SRB assay; format: cell-based, human; settings: mean ± SD of at least two experiments
Procedure: (§2) Cells, cultures and the activity test of abietane analogs followed reported methods. The SRB assay was performed as previously described, and the antiproliferative activity was given as GI50 values, which were calculated according to NCI formulas.

SW1573 (Lung) [14] = assay: Antiproliferative SRB assay; format: cell-based, human
Procedure: as §2

A549 (Lung) [15] = assay: Antiproliferative SRB assay; format: cell-based, human
Procedure: as §2

T-47D (Breast) [16] = assay: Antiproliferative SRB assay; format: cell-based; settings: Homo sapiens, T47D, mean ± SD of at least two experiments
Procedure: as §2

HBL-100 (Breast) [17] = assay: Antiproliferative SRB assay; format: cell-based; settings: Homo sapiens, mean ± SD of at least two experiments
Procedure: as §2

HeLa (Cervix) [18] = assay: Antiproliferative SRB assay; format: cell-based; settings: Homo sapiens, mean ± SD of at least two experiments
Procedure: as §2

[19] = read-out: Macrophages J774 CC50, C18-congeners
[20] = mean ± SD of at least two experiments

Compound	GI50 (HBL-100 (Breast) [2]; C18-congeners) [µM]	GI50 (T-47D (Breast) [3]; C18-congeners) [µM]	GI50 (HeLa (Cervix) [4]; C18-congeners) [µM]	GI50 (SW1573 (Lung) [5]; C18-congeners) [µM]	GI50 (A549 (Lung) [6]; C18-congeners) [µM]	IGABA Potentiation of 10 µM (%) ([7]; C18-congeners)	IGABA Potentiation of 100 µM (%) ([7]; C18-congeners)	GI50 (WiDr (Colon) [8]; C18-congeners) [µM]	CC50 (Macrophages J774; [19]) [µM]	IC50 [1] [µM]	IC50 [10] [µM]	IC50 [11] [µM]	IC50 [12] [µM]	other results
CC(C)c1cc2c(cc1O)C1(C)CCCC(C)(C(=O)O)C1CC2=O (single isomer, unassigned; (+)) [Compound 8b, (+)-liquiditerpenoic acid A]	> 100	> 100	85 ± 21	> 100	> 100	−2.2 ± 4.4	−21.1 ± 7.1	> 100	–	–	–	–	–	CC50 (Macrophages J774): 219 ± 15 µM; L. guyanensis IC50 ± SD [1]: inactive
CCN(CC)CCCC(C)Nc1ccnc2cc(Cl)ccc12 (stereo not shown) [Chloroquine, reference compound]	–	–	–	–	–	–	–	–	–	–	–	–	–	EC50 (P. falciparum K1 strain): 0.69 µM; EC50 (P. falciparum 3D7 strain): 0.023 µM; EC50 (HEK293; Homo sapiens, HEK293, read-out: HEK293 EC50): > 25 µM; EC50 (HepG2; Homo sapiens, HepG2, read-out: HepG2 EC50): > 25 µM; EC50 (RAJI): > 25 µM; EC50 (BJ): > 25 µM
CC(C)c1cc2c(cc1O)[C@@]1(C)CCCC(C)(C)[C@@H]1CC2=O [Compound 2, sugiol]	–	–	–	–	–	–	–	–	–	–	–	–	–	GI50 (A549 (Lung) [6]): 79.8 ± 2.2 µM
CC(C)c1ccc2c(c1)CC[C@H]1[C@](C)(C(=O)O)CCC[C@]21C [Compound 3, dehydroabietic acid, reference compound]	–	–	–	–	–	–	–	–	–	–	–	–	–	activation at 10 µM ([9]; read-out: IGABA Potentiation of 10 µM (%)): 192 ± 10%; activation at 100 µM ([9]; read-out: IGABA Potentiation of 100 µM (%)): 789 ± 82%
CC(C)c1ccc2c(c1)CC[C@H]1[C@@](C)(C(=O)O)CCC[C@]21C [Compound 6, callitrisic acid]	–	–	–	–	–	–	–	–	–	–	–	–	–	IGABA Potentiation of 10 µM (%) [7]: 14 ± 5%; IGABA Potentiation of 100 µM (%) [7]: 269 ± 24%
COC(=O)[C@@]1(C)CCC[C@]2(C)c3ccc(C(C)C)cc3CC[C@@H]12 [Compound 7, methyl callitrisate]	–	–	–	–	–	–	–	–	–	–	–	–	–	GI50 (HBL-100 (Breast) [2]): 14 ± 5 µM; GI50 (T-47D (Breast) [3]): 8.8 ± 2.7 µM; GI50 (HeLa (Cervix) [4]): 16 ± 2.5 µM; GI50 (SW1573 (Lung) [5]): 17 ± 2.2 µM; GI50 (A549 (Lung) [6]): 10 ± 1.9 µM; GI50 (WiDr (Colon) [8]): 6.4 ± 2.1 µM
COC(=O)[C@]1(C)CCC[C@]2(C)c3cc(OC(C)=O)c(C(C)C)cc3CC[C@@H]12 [Compound 10b]	15 ± 3.9	14 ± 2.9	4.4 ± 1.1	12 ± 3.2	11 ± 1.8	5.1 ± 2.1	26.3 ± 8.9	16 ± 2.5	26.5 ± 2.7	5.5 ± 0.7	3.2 ± 0.3	8.1 ± 0.7	1.3 ± 0.1	–
COC(=O)[C@]1(C)CCC[C@]2(C)c3cc(OC(C)=O)c(C(C)C)cc3C(=O)C[C@@H]12 [Compound 11b]	16 ± 1.5	20 ± 2.9	13 ± 2.3	17 ± 1.9	14 ± 0.4	−1.0 ± 2.8	46.7 ± 8.3	19 ± 1.7	17.8 ± 2.8	1.3 ± 0.1	0.65 ± 0.03	4.4 ± 0.5	0.7 ± 0.2	–
COC(=O)[C@]1(C)CCC[C@]2(C)c3cc(O)c(C(C)C)cc3CC[C@@H]12 [Compound 12b]	9.7 ± 2.7	19 ± 3.8	5.8 ± 0.5	11 ± 2	9.4 ± 2.6	23.7 ± 9.6	378.0 ± 65.6	23 ± 4.4	34.2 ± 3.1	5.9 ± 1.1	3.9 ± 0.1	9.21 ± 0.06	5 ± 0.3	–
CC(C)c1cc2c(cc1O)[C@@]1(C)CCC[C@@](C)(C(=O)O)C1CC2 (stereo partly shown) [Compound 13b, 12-hydroxydehydroabietic acid]	> 100	> 100	96 ± 5.5	93 ± 9.3	70 ± 6.3	8.9 ± 2.3	12.1 ± 2.9	> 100	85.8 ± 28.8	71.4 ± 1.5	54.1 ± 6.5	58.1 ± 0.7	43.6 ± 3.4	–
CC(C)c1cc2c(cc1O)[C@@]1(C)CCC[C@@](C)(CO)[C@@H]1CC2 [Compound 14b]	16 ± 2	16 ± 0.9	12 ± 1.8	15 ± 2.8	12 ± 1.9	29.3 ± 10.6	154.1 ± 34.2	17 ± 1.3	23.4 ± 4.6	12.5 ± 2.2	7.7 ± 0.8	13.9 ± 0.1	0.7 ± 0.1	–
CC(C)c1cc2c(cc1O)[C@@]1(C)CCC[C@@](C)(CO)[C@@H]1CC2=O [Compound 15b]	16 ± 2	20 ± 2.7	16 ± 2.4	23 ± 0.7	19 ± 3.3	4.5 ± 5.8	−30.3 ± 9.5	19 ± 2.1	14.4 ± 2.8	16.5 ± 0.7	10.2 ± 0.6	19.7 ± 0.4	9.7 ± 0.8	–
COC(=O)[C@]1(C)CCC[C@]2(C)c3cc(O)c(C(C)C)cc3C(=O)C[C@@H]12 [Compound 16b]	> 100	> 100	> 100	> 100	> 100	37.4 ± 12.7	242.4 ± 46.0	> 100	154 ± 49.3	–	–	–	–	–
CC(C)=CCC[C@]1(C)C=Cc2c(O)c3c(c(CC=C(C)C)c2O1)O[C@]12C(=C[C@@H]4C[C@H]1C(C)(C)O[C@@]2(C/C=C(/C)C(=O)O)C4=O)C3=O [Gambogic acid, reference compound]	–	–	–	–	–	–	–	–	–	–	–	–	–	EC50 (HEK293; Homo sapiens, HEK293; read-out: HEK293 EC50): 0.21 µM; EC50 (HepG2; Homo sapiens, HepG2; read-out: HepG2 EC50): > 25 µM; EC50 (RAJI): 0.24 µM; EC50 (BJ): 0.21 µM
N.N.[Cl][Pt][Cl] [cisplatin, reference compound]	–	–	–	–	–	–	–	–	–	–	–	–	–	GI50 (WiDr (Colon) [13]): 23 ± 4.3 µM; GI50 (SW1573 (Lung) [14]; [20]): 2.7 ± 0.4 µM; GI50 (A549 (Lung) [15]; [20]): 4.9 ± 0.2 µM
COc1cc([C@@H]2c3cc4c(cc3[C@@H](O[C@@H]3O[C@@H]5CO[C@@H](C)O[C@H]5[C@H](O)[C@H]3O)[C@H]3COC(=O)[C@H]23)OCO4)cc(OC)c1O [etoposide, reference compound]	–	–	–	–	–	–	–	–	–	–	–	–	–	GI50 (WiDr (Colon) [13]; Homo sapiens, WiDr): 23 ± 3.1 µM; GI50 (SW1573 (Lung) [14]; Homo sapiens, SW1573, mean ± SD of at least two experiments): 15 ± 1.5 µM; GI50 (A549 (Lung) [15]; Homo sapiens, A549, mean ± SD of at least two experiments): 1.5 ± 0.3 µM; GI50 (T-47D (Breast) [16]): 22 ± 5.5 µM; GI50 (HBL-100 (Breast) [17]): 1.4 ± 0.1 µM; GI50 (HeLa (Cervix) [18]): 3.3 ± 1.6 µM
